In patent publication US20080319042A1, “Compositions and methods for treatment of liver disease” (priority 2007, published 2008):
In brackets after ≈: the same amount, converted by molar mass. Several values for one entry are separate records, joined by “and”; a condition that tells them apart may be missing. Equal entries are not always repeated.

Columns and labels:
HCV/HIV pseudovirions = test: microbe, parasite or virus in culture; assay type: cell-based, hepatitis C virus
HCV JFH1 = HCV JFH1 infectivity assay (JFH1 Foci Reduction Assay); assay type: cell-based, hepatitis C virus; conditions: Hepatitis C virus; virus preincubated with compound; Huh 7 cells; 48 hr post infection; RD8, RD16, RD17, RD18 as glucosidase hydrolysis products; read-out: Estimated IC50 (inhibition of HCV JFH1 infectivity)
HBeAg = test: Anti-HBSAg Assay (Procedure B), HBeAg; assay type: cell-based, hepatitis B virus
HBV DNA = test: Anti-HBV DNA Assay; assay type: cell-based, hepatitis B virus; conditions: for HBV DNA copies/ml: replicates, listed as HP-S4
HBsAg = test: Anti-HBSAg Assay (Procedure B), HBsAg; assay type: cell-based, hepatitis B virus
Experimental: The HBV-producing human hepatoblastoma cell line, Hep G2 2.2.15 is maintained in DMEM supplemented with 10% fetal bovine serum (FBS), 2 mM glutamine, 100 units/ml penicillin, 100 μg/ml streptomycin at 37° C. under 5% CO2 in air.
Samples were dissolved in DMSO at the concentration of 20 mg/mL, then further diluted with DMEM medium to the appropriate concentration.
Hep G2 2.2.15 cells (120 μl) were seeded onto 96-well plates at a concentration of 2×10^5 cells/mL. The cells incubated for 72 h in the medium without G418, after which the test samples (120 μl) were added. Five 3-fold serial dilutions of samples were tested. PBS and 3TC (lamivudine) were included as the negative and positive controls, respectively. The treated cells were incubated at 37° C. for 9 days; with the medium with sample being changed each 3 days, after which the culture supernatant was removed for analysis of both the hepatitis B surface antigen (HBsAg) production and hepatitis B DNA expression.
The HBsAg released into the culture medium in the presence or absence of test material was assayed using the kit manufactured by Shanghai Siic Kehua Biotech Co., Ltd (Shanghai, China). This enzyme immunoassay is based on the capture of HBsAg on monoclonal antibody-coated plates. Four- and twelve-fold dilutions of all culture supernatants collected were assayed in triplicate wells of the kit plate. The percentage inhibition of HBsAg secretion in the presence of the compound was calculated against the negative control (PBS). The IC50 values, the dose that inhibited viruses by 50%, were calculated using non-linear regression analysis (percent survival versus concentration).

`COC(=O)C1=CO[C@@H](O)[C@@H]2C(CO)=CC[C@H]12` [RD-4] gave an inhibition at 20 µg/mL (HCV/HIV pseudovirions; Hepatitis C virus, Huh-7, read-out: HCV Inhibition at 20 μg/mL) of 73.2% and an IC50 (HCV JFH1) of 22 mg/L (≈ 97.2 µM).

For `OCC1=C[C@@H](O)[C@@H]2C=CO[C@@H](O)[C@H]12` [aucubin aglycone], the “HBeAg Ave” value (HBeAg; 6.25 μg/mL) was 1.299, the “HBeAg Inhibition %” value (HBeAg; 6.25 μg/mL) was 0% and the “HBeAg OD1” value (HBeAg; 6.25 μg/mL) was 1.327. The “HBeAg OD2” value (HBeAg; 6.25 μg/mL) was 1.265, the “HBeAg OD3” value (HBeAg; 6.25 μg/mL) was 1.304 and the “HBeAg Ave” value (HBeAg; 12.5 μg/mL) was 1.393. For the same compound, the “HBeAg Inhibition %” value (HBeAg; 12.5 μg/mL) was 0%, the “HBeAg OD1” value (HBeAg; 12.5 μg/mL) was 1.561 and the “HBeAg OD2” value (HBeAg; 12.5 μg/mL) was 1.316. The “HBeAg OD3” value (HBeAg; 12.5 μg/mL) was 1.303, the “HBeAg Ave” value (HBeAg; 25 μg/mL) was 1.334 and the “HBeAg Inhibition %” value (HBeAg; 25 μg/mL) was 0%. The “HBeAg OD1” value (HBeAg; 25 μg/mL) was 1.375, the “HBeAg OD2” value (HBeAg; 25 μg/mL) was 1.335 and the “HBeAg OD3” value (HBeAg; 25 μg/mL) was 1.293. The “HBeAg Ave” value (HBeAg; 50 μg/mL) was 1.226, the “HBeAg Inhibition %” value (HBeAg; 50 μg/mL) was 0% and the “HBeAg OD1” value (HBeAg; 50 μg/mL) was 1.295. For the same compound, the “HBeAg OD2” value (HBeAg; 50 μg/mL) was 1.259, the “HBeAg OD3” value (HBeAg; 50 μg/mL) was 1.123 and the “HBeAg Ave” value (HBeAg; 100 μg/mL) was 1.329. The “HBeAg Inhibition %” value (HBeAg; 100 μg/mL) was 0%, the “HBeAg OD1” value (HBeAg; 100 μg/mL) was 1.162 and the “HBeAg OD2” value (HBeAg; 100 μg/mL) was 1.391. For the same compound, the “HBeAg OD3” value (HBeAg; 100 μg/mL) was 1.435, the “inhibition of HCV/HIV entry” value (HCV/HIV pseudovirions; 100 μg/mL, FIG. 1) was “approximately 80%” and the “HBV DNA Average” value (HBV DNA; 6.25 μg/ml) was 1.10 × 10^6 copies/ml. For the same compound, the “HBV DNA Inhibit” value (HBV DNA; 6.25 μg/ml) was 5.99%, the “HBV DNA copies/ml” value (HBV DNA; 6.25 μg/ml) was 1.26E+06 copies/ml and 9.83E+05 copies/ml and 1.06E+06 copies/ml and the “HBV DNA Average” value (HBV DNA; 12.5 μg/ml) was 9.52 × 10^5 copies/ml. For the same compound, the “HBV DNA Inhibit” value (HBV DNA; 12.5 μg/ml) was 8.60%, the “HBV DNA copies/ml” value (HBV DNA; 12.5 μg/ml) was 1.16E+06 copies/ml and 9.17E+05 copies/ml and 7.78E+05 copies/ml and the “HBV DNA Average” value (HBV DNA; 25 μg/ml) was 1.01 × 10^6 copies/ml. For the same compound, the “HBV DNA Inhibit” value (HBV DNA; 25 μg/ml) was 13.70%, the “HBV DNA copies/ml” value (HBV DNA; 25 μg/ml) was 1.02E+06 copies/ml and 9.74E+05 copies/ml and 1.04E+06 copies/ml and the “HBV DNA Average” value (HBV DNA; 50 μg/ml) was 9.79 × 10^5 copies/ml. For the same compound, the “HBV DNA Inhibit” value (HBV DNA; 50 μg/ml) was 16.30%, the “HBV DNA copies/ml” value (HBV DNA; 50 μg/ml) was 1.05E+06 copies/ml and 9.27E+05 copies/ml and 9.59E+05 copies/ml and the “HBV DNA Average” value (HBV DNA; 100 μg/ml) was 8.43 × 10^5 copies/ml. The “HBV DNA Inhibit” value (HBV DNA; 100 μg/ml) was 27.90%, the “HBV DNA copies/ml” value (HBV DNA; 100 μg/ml) was 7.90E+05 copies/ml and 7.94E+05 copies/ml and 9.44E+05 copies/ml and the “HBsAg Ave.” value (HBsAg; 6.25 μg/mL) was 1.407. The “HBsAg Inhibition %” value (HBsAg; 6.25 μg/mL) was 0%, the “HBsAg OD1” value (HBsAg; 6.25 μg/mL) was 1.392 and the “HBsAg OD2” value (HBsAg; 6.25 μg/mL) was 1.375. The “HBsAg OD3” value (HBsAg; 6.25 μg/mL) was 1.454, the “HBsAg Ave.” value (HBsAg; 12.5 μg/mL) was 1.323 and the “HBsAg Inhibition %” value (HBsAg; 12.5 μg/mL) was 4.5%. The “HBsAg OD1” value (HBsAg; 12.5 μg/mL) was 1.370, the “HBsAg OD2” value (HBsAg; 12.5 μg/mL) was 1.372 and the “HBsAg OD3” value (HBsAg; 12.5 μg/mL) was 1.227. For the same compound, the “HBsAg Ave.” value (HBsAg; 25 μg/mL) was 1.300, the “HBsAg Inhibition %” value (HBsAg; 25 μg/mL) was 6.1% and the “HBsAg OD1” value (HBsAg; 25 μg/mL) was 1.608. The “HBsAg OD2” value (HBsAg; 25 μg/mL) was 1.116, the “HBsAg OD3” value (HBsAg; 25 μg/mL) was 1.175 and the “HBsAg Ave.” value (HBsAg; 50 μg/mL) was 0.845. The “HBsAg Inhibition %” value (HBsAg; 50 μg/mL) was 37.9%, the “HBsAg OD1” value (HBsAg; 50 μg/mL) was 0.935 and the “HBsAg OD2” value (HBsAg; 50 μg/mL) was 0.926. The “HBsAg OD3” value (HBsAg; 50 μg/mL) was 0.675, the “HBsAg Ave.” value (HBsAg; 100 μg/mL) was 0.656 and the “HBsAg Inhibition %” value (HBsAg; 100 μg/mL) was 52.6%. The “HBsAg OD1” value (HBsAg; 100 μg/mL) was 0.667, the “HBsAg OD2” value (HBsAg; 100 μg/mL) was 0.641 and the “HBsAg OD3” value (HBsAg; 100 μg/mL) was 0.66.
